In ChEMBL document CHEMBL1201862, “PubChem BioAssay data set” (2004):
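Five compound concentrations were applied to cells in 96-well plates for 48 hours; endpoints were derived by simple linear interpolation of the resulting dose-response curve. GI50 = concentration required for 50% inhibition of growth.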 The source made the active and inactive calls. Cut-off read from the data, not from the text of the source: active = GI50 up to about 1.1 µM and inactive = higher.

Legend:
Assay in all cases: growth of human tumour cells (NCI), 48 h
[1] = test system: A549
[2] = test system: DU-145
[3] = test system: SF-295
[4] = test system: U-251
[5] = test system: Malme-3M
[6] = test system: MDA-MB-435
[7] = test system: EKVX
[8] = test system: K562
[9] = test system: KM12
[10] = test system: UACC-257
[11] = test system: SK-OV-3
[12] = test system: CAKI-1
[13] = test system: TK-10
[14] = test system: ACHN
[15] = test system: MOLT-4
[16] = test system: A498
[17] = test system: RXF 393
[18] = test system: UACC-62
[19] = test system: SNB-75
[20] = test system: HCT-15
[21] = test system: OVCAR-3
[22] = test system: MDA-MB-231
[23] = test system: 786-0
[24] = test system: NCI/ADR-RES
[25] = test system: OVCAR-8
[26] = test system: HOP-62
[27] = test system: LOX IMVI
[28] = test system: M14
[29] = test system: HT-29
[30] = test system: HCT-116
[31] = test system: SW-620
[32] = test system: MCF7
[33] = test system: SK-MEL-28
[34] = test system: NCI-H522
[35] = test system: SN12C
[36] = test system: NCI-H226
[37] = test system: MDA-N
[38] = test system: SNB-19
[39] = test system: Hs-578T
[40] = test system: NCI-H23
[41] = test system: SR
[42] = test system: OVCAR-4
[43] = test system: HOP-92
[44] = test system: PC-3
[45] = test system: HCC 2998
[46] = test system: BT-549
[47] = test system: SF-268
[48] = test system: IGROV-1
[49] = test system: UO-31
[50] = test system: COLO 205
[51] = test system: T47D
[52] = test system: SF-539
[53] = test system: HL-60
[54] = test system: SK-MEL-5
[55] = test system: SK-MEL-2
[56] = test system: OVCAR-5
[57] = test system: NCI-H460
[58] = test system: RPMI-8226
[59] = test system: CCRF-CEM

**Q.** What does the source list for `Nc1nc(-c2ccccc2)c(-c2ccccc2)c(-c2nc(N)nc(-c3ccccc3)c2-c2ccccc2)n1`?
**A.** GI50 [1]: > 100 µM (inactive); GI50 [2]: > 100 µM (inactive); GI50 [3]: 78.9 µM (inactive); GI50 [4]: > 100 µM (inactive); GI50 [5]: > 100 µM (inactive); GI50 [6]: > 100 µM (inactive); GI50 [7]: 63.7 µM (inactive); GI50 [8]: > 100 µM (inactive); GI50 [9]: > 100 µM (inactive); GI50 [10]: > 100 µM (inactive); GI50 [11]: > 100 µM (inactive); GI50 [12]: > 100 µM (inactive); GI50 [13]: > 100 µM (inactive); GI50 [14]: > 100 µM (inactive); GI50 [15]: > 100 µM (inactive); GI50 [16]: 75.5 µM (inactive); GI50 [17]: 94 µM (inactive); GI50 [18]: 85.3 µM (inactive); GI50 [19]: 88.7 µM (inactive); GI50 [20]: > 100 µM; GI50 [21]: 83.2 µM (inactive); GI50 [22]: > 100 µM (inactive); GI50 [23]: > 100 µM (inactive); GI50 [24]: > 100 µM (inactive); GI50 [25]: > 100 µM (inactive); GI50 [26]: > 100 µM (inactive); GI50 [27]: > 100 µM (inactive); GI50 [28]: > 100 µM (inactive); GI50 [29]: 62.1 µM (inactive); GI50 [30]: > 100 µM (inactive); GI50 [31]: > 100 µM (inactive); GI50 [32]: 49.4 µM (inactive); GI50 [33]: > 100 µM (inactive); GI50 [34]: 57.9 µM (inactive); GI50 [35]: > 100 µM (inactive); GI50 [36]: > 100 µM (inactive); GI50 [37]: 75.7 µM (inactive); GI50 [38]: > 100 µM (inactive); GI50 [39]: > 100 µM (inactive); GI50 [40]: > 100 µM (inactive); GI50 [41]: > 100 µM (inactive); GI50 [42]: 91 µM (inactive); GI50 [43]: > 100 µM (inactive); GI50 [44]: > 100 µM (inactive); GI50 [45]: 49 µM (inactive); GI50 [46]: > 100 µM (inactive); GI50 [47]: > 100 µM (inactive); GI50 [48]: > 100 µM (inactive); GI50 [49]: > 100 µM (inactive); GI50 [50]: > 100 µM (inactive); GI50 [51]: 49.7 µM (inactive); GI50 [52]: > 100 µM (inactive); GI50 [53]: > 100 µM (inactive); GI50 [54]: > 100 µM (inactive); GI50 [55]: > 100 µM (inactive); GI50 [56]: > 100 µM (inactive); GI50 [57]: 74.3 µM (inactive)

**Q.** With `CCOC(=O)C(NC(=O)Nc1ccccc1)(Nc1cccc(Cl)c1)C(F)(F)F` (stereo not drawn) as the compound, how does the GI50 [1] read?
**A.** > 100 µM (inactive)

**Q.** What about the GI50 [2] of the same compound?
**A.** > 100 µM (inactive)

**Q.** What about the GI50 [4] of the same compound?
**A.** > 100 µM (inactive)

**Q.** What about the GI50 [5] of the same compound?
**A.** > 100 µM (inactive)

**Q.** And the GI50 [6]?
**A.** > 100 µM (inactive)

**Q.** And the GI50 [7]?
**A.** > 100 µM (inactive)

**Q.** What about the GI50 [8] of the same compound?
**A.** > 100 µM (inactive)

**Q.** What about the GI50 [58] of the same compound?
**A.** > 100 µM (inactive)

**Q.** And the GI50 [9]?
**A.** > 100 µM (inactive)

**Q.** What about the GI50 [10] of the same compound?
**A.** > 100 µM (inactive)

**Q.** And the GI50 [11]?
**A.** > 100 µM (inactive)

**Q.** And the GI50 [13]?
**A.** > 100 µM (inactive)

**Q.** What about the GI50 [14] of the same compound?
**A.** > 100 µM (inactive)

**Q.** What about the GI50 [15] of the same compound?
**A.** 98.9 µM (inactive)

**Q.** What about the GI50 [16] of the same compound?
**A.** > 66.4 µM (inactive)

**Q.** What about the GI50 [17] of the same compound?
**A.** 20.7 µM (inactive)

**Q.** What about the GI50 [18] of the same compound?
**A.** > 100 µM (inactive)

**Q.** And the GI50 [19]?
**A.** 46.7 µM (inactive)

**Q.** What about the GI50 [20] of the same compound?
**A.** > 100 µM

**Q.** What about the GI50 [21] of the same compound?
**A.** > 100 µM (inactive)

**Q.** And the GI50 [22]?
**A.** > 100 µM (inactive)

**Q.** And the GI50 [23]?
**A.** > 100 µM (inactive)

**Q.** And the GI50 [24]?
**A.** > 100 µM (inactive)

**Q.** And the GI50 [25]?
**A.** > 100 µM (inactive)

**Q.** What about the GI50 [26] of the same compound?
**A.** > 100 µM (inactive)

**Q.** And the GI50 [27]?
**A.** > 100 µM (inactive)

**Q.** What about the GI50 [28] of the same compound?
**A.** > 100 µM (inactive)

**Q.** And the GI50 [29]?
**A.** > 100 µM (inactive)

**Q.** And the GI50 [59]?
**A.** 45.1 µM (inactive)

**Q.** And the GI50 [30]?
**A.** > 100 µM (inactive)

**Q.** And the GI50 [31]?
**A.** > 100 µM (inactive)

**Q.** And the GI50 [32]?
**A.** > 100 µM (inactive)

**Q.** And the GI50 [33]?
**A.** > 100 µM (inactive)

**Q.** And the GI50 [34]?
**A.** 92.9 µM (inactive)

**Q.** And the GI50 [35]?
**A.** > 100 µM (inactive)

**Q.** What about the GI50 [36] of the same compound?
**A.** > 100 µM (inactive)

**Q.** What about the GI50 [37] of the same compound?
**A.** > 100 µM (inactive)

**Q.** And the GI50 [38]?
**A.** > 100 µM (inactive)

**Q.** And the GI50 [39]?
**A.** 24.3 µM (inactive)

**Q.** What about the GI50 [40] of the same compound?
**A.** > 100 µM (inactive)

**Q.** What about the GI50 [41] of the same compound?
**A.** > 100 µM (inactive)

**Q.** And the GI50 [43]?
**A.** 39.8 µM (inactive)

**Q.** And the GI50 [44]?
**A.** > 100 µM (inactive)

**Q.** And the GI50 [45]?
**A.** > 100 µM (inactive)

**Q.** And the GI50 [46]?
**A.** > 100 µM (inactive)

**Q.** What about the GI50 [47] of the same compound?
**A.** > 100 µM (inactive)

**Q.** And the GI50 [48]?
**A.** > 100 µM (inactive)

**Q.** What about the GI50 [49] of the same compound?
**A.** > 100 µM (inactive)

**Q.** What about the GI50 [50] of the same compound?
**A.** > 100 µM (inactive)

**Q.** And the GI50 [51]?
**A.** > 100 µM (inactive)

**Q.** And the GI50 [52]?
**A.** > 100 µM (inactive)

**Q.** What about the GI50 [53] of the same compound?
**A.** 42 µM (inactive)

**Q.** And the GI50 [54]?
**A.** > 100 µM (inactive)

**Q.** And the GI50 [55]?
**A.** > 100 µM (inactive)

**Q.** What about the GI50 [56] of the same compound?
**A.** > 100 µM (inactive)

**Q.** And the GI50 [57]?
**A.** > 100 µM (inactive)
